Key:
[1] = system: NBMEL normal human melanocytes; experiment: CellTiter-Glo Luminescent Cell Viability Assay; format: cell-based; conditions: Melanocyte, WT, 72 hrs
Description: SFK-inhibitors were tested on a panel of NCI-60 cell lines (Supplementary Table 1) and 30 melanoma cell lines and NBMEL, i.e., normal human melanocytes isolated from a newborn foreskin (Table 1 and Supplementary Table 2). The Yale melanoma cohort designated YU originated from tumors excised to improve patient quality of life and used with participants’ informed consent according to Health Insurance Portability and Accountability Act (HIPAA) regulations with Human Investigative Committee protocol.
The melanoma cells were grown in OptiMEM (Invitrogen, Carlsbad, CA) supplemented with 5% fetal calf serum and antibiotics. The normal human melanocytes (NBMEL) were grown in medium supplemented with bFGF, IBMX and dbcAMP [32]. Most of the Yale melanoma cell lines were characterized by next-generation sequencing (Supplementary Table 2).
Cell proliferation was measured with the CellTiter-Glo® Luminescent Cell Viability Assay (Promega Corporation, Madison, WI). Melanoma cells were seeded in 96-well plates in triplicate or quadruplet wells, with increasing concentrations of kinase inhibitors for 72 hrs. The rate of proliferation was also tested after knockdown of different SRC-family kinases (SFK) with hairpin lentivirus shRNA as indicated. […] The statistical significance of synergism of response to drug combinations was evaluated by following Chou and Talalay algorithm. […]

[2] = system: phospho-SHP2 Y542; experiment: Western blot, phospho-SHP2; format: cell-based, human; conditions: melanoma cell lines
Description: We used standard techniques to identify changes in intracellular signaling in response to various treatments. Briefly, melanoma cells were incubated with test compounds, using DMSO as a control, collected by scraping on ice, and lysed in RIPA buffer supplemented with protease and phosphatase inhibitors (MA #78428, and #78425, respectively, Thermo Fisher Scientific, Waltham, MA). Protein concentrations were measured with the BioRad kit (Bio-Rad Laboratories, Hercules, CA), SDS sample buffer was added, extracts were heated at 95°C, sonicated and centrifuged. Cell extracts (20 µg/lane) were fractionated in 3%–8% or 4–12 % tris-acetate gel (NP0006, NuPAGE Life Technologies). […]

[3] = target: LCK (Homo sapiens, UniProt P06239); experiment: KiNativ in situ kinase profiling in melanoma cell lysates; format: binding; set-up: we tested the endogenous kinome response to SAB298; host or cells: YUSIV or YUSIK melanoma cell lysate; conditions: LCK in YUSIV lysate; 3-point dose response
Chain of LCK (P06239 whole entry): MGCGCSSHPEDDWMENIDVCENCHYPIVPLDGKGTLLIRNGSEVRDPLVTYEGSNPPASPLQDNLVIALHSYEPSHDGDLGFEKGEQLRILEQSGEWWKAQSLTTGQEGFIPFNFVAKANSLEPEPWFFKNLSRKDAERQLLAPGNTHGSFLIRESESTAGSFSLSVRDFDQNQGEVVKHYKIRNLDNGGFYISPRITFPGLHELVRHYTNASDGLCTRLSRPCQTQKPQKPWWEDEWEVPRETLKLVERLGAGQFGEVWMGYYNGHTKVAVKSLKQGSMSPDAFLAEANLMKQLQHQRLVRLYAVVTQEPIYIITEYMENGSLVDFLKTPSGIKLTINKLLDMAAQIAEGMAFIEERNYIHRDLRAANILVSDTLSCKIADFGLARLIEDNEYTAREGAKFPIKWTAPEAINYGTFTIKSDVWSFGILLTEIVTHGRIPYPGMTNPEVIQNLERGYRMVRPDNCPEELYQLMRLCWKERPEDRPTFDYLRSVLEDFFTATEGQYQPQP
Description: The effect of SAB298 on a panel of 36 recombinant kinases, was screed with the radioisotope filter binding assay employing 10 concentrations of the compound with 10 µM ATP (Reaction Biology Corporation, Malvern, PA). In addition, we tested the endogenous kinome response to SAB298 (0.05 µM, 0.5 µM and 5 µM) in lysates from two melanoma cell lines (YUSIV and YUSIK) employing the KiNativ® platform (ActivX Biosciences Inc., La Jolla, CA). KiNativ® is a robust, high performance mass spectrometry (LC-MS^2) assay that uses biotinylated probes to measure relevant changes in the affinity to the ATP-binding sites of 205 native kinases as a function of cellular context. We also validated SAB298 effect on the activity of SRC-family kinases by probing for phosphorylated Y416, the marker of activated SFKs, with anti-IEDNEpYTAR antibodies (also known as Y419, #2101, Cell Signaling Technology, Beverly, MA). In some cases the cells were incubated overnight with 20 µM proteasome inhibitor MG-132 (CAS 133407-82-6, Millipore Sigma, Burlington, MA) to rescue degradation.

[4] = Clinical signs of toxicity in tumor bearing mice; format: in vivo; conditions: daily intraperitoneal SAB298
Description: All procedures involving animals were approved by the Institutional Animal Care and Use Committee of Yale University. YUSIK melanoma cells were grown to 80% confluency in 150 cm^2 flasks, detached by trypsinization, washed with PBS, and cell pellets were resuspended in 1:1 mixture of PBS and matrigel (BD Bioscience Cat #354234) to sustain cell viability. The cells (4 × 10^6/100 µl) were injected subcutaneously in the back flank of six weeks old female athymic Nude-Foxn1nu (nu/nu) mice (Charles River Laboratories, Wilmington, MA), and tumors were measuring daily with a caliper (length, width, and depth). When tumors reached palpable size (between 25–40 mm^3), the animals were randomized by tumor size and body weigh into two groups and were daily injected intraperitoneally with SAB298 (batch #AU0588-91, Sabila Biosciences LLC, 5 Overlook Road, New City, New York, 10956) or vehicle as controls (N = 6/each). […] The vehicle contained the same reagents but without SAB298.
The tumors size and body weight were measured daily and the mice were checked for clinical signs of toxicity, such as lethargy, neurological symptoms, diarrhea, discharges, morbidity, piloerection and weight loss (>20%).

## Nc1ncnc2c1c(-c1ccc(Oc3ccccc3)cc1)nn2C[C@@H]1SSC[C@@H]1O [SAB298, (3S, 4S)-3-((4-amino-3-(4-phenoxyphenyl)-1H-pyrazolo[3,4-d]pyrimidin-1-yl)methyl)-1,2-dithiolan-4-ol]
[1]
  IC50: 0.968 µM
[2]
  phospho-SHP2 Y542 level: inactivated phospho-SHP2 Y542 in YUSIK, YUROB and YUSOC melanoma cell lines, but not in YUGASP
[3]
  IC50: 1.4 µM
[4]
  Clinical signs of toxicity (lethargy, neurological symptoms, diarrhea, discharges, morbidity, piloerection, weight loss >20%): None of them or any other abnormal indication were observed
